Data published in patent US5665367A, “Skin care compositions containing naringenin and/or quercetin and a retinoid” (Chesebrough-Pond's USA Co., Division of Conopco, Inc., priority 1996, dated 1997).
Like-named read-outs stand apart in the source and are kept apart here.

What was measured:
[1] = test system: transglutaminase (TGase I) in human keratinocytes; assay: Transglutaminase assay (ELISA based TGase I assay) normalized to DNA in keratinocytes, Example 1; assay type: cell-based; conditions: for decrease in transglutaminase level, dose dependence: 2.5×10^-9 to 2.5×10^-7 M; for activity at 0.25 µM / activity at 0.025 µM / activity at 0.0025 µM: Homo sapiens, Keratinocyte, read-out: mean TGase/DNA (% control); for activity at 0.25 µM / activity at 0.025 µM / activity at 0.0025 µM / mean TGase/DNA × 10^-4 ± s.d: 72 hours, Table 1, n = 3
Method: (§1) Human keratinocytes, isolated from neonatal foreskin by trypsin treatment were grown in Dulbecco Modification Eagle (DME) Hams F12 (1:1) medium/10% fetal calf serum in the presence of irradiated 3T3 mouse fibroblasts for establishing dividing keratinocyte colonies. Cells were grown under the above condition until their second passage and kept frozen for future use. Frozen second passage keratinocytes were thawed and plated into the above medium and grown for five days before they were switched to a serum-free MCDB 153-based medium keratinocyte growth medium (KGM) from Clonetics Corporation, San Diego, Calif., containing 0.15 mM Ca, or keratinocyte serum-free media (KSFM) from GIBCO containing 0.09 mM Ca). On day 7, when the cells were 80-90% confluent, they were trypsinized and plated in the serum-free medium for the various experiments.
(§2) During the process of terminal differentiation in the epidermis, a 15 nm thick layer of protein, known as the cornified envelope (CE) is formed on the inner surface of the cell periphery. The CE is composed of numerous distinct proteins which have been cross-linked together by the formation of N^ε -(γ-glutamyl) lysine isodipeptide bonds catalyzed by the action of at least two different transglutaminases (TGases) expressed in the epidermis. TGase 1 is expressed in abundance in the differentiated layers of the epidermis, especially the granular layer, but is absent in the undifferentiated basal epidermis. Thus TGase I is a useful marker of epidermal keratinocyte differentiation with high TGase I levels indicating a more differentiated state. An ELISA based TGase I assay, using a TGase I antibody, was used to assess the state of differentiation of the cultured keratinocytes in the examples that follow.
For Example 1, the following procedure was used:
Keratinocytes (cultured as described above) were plated in 96 well plates at a density of 3,000 cells per well in 200 μl media. After incubation for four days the media was changed to media containing test compounds (six replicates per test). The cells were cultured for a further 72 hours after which time the media was aspirated and the plates stored at -70° C. Plates were removed from the freezer, and the cells washed with PBS. 100 μl sterile water was added and the cells were freeze fractured by freezing at -70° C. then thawing. The cells were incubated for one hour at room temperature (R/T) with PBS/3% BSA (wash buffer, bovine serum albumin), then rinsed with a fresh aliquot of wash buffer. Cells were incubated with 50 μl of primary antibodies monoclonal anti-human transglutaminase mouse antibody (IgG) obtained from Biomedical Industries diluted 1:2,000 in wash buffer for one hour, 37° C. then rinsed two times with wash buffer. Cells were then incubated with 50 μl of secondary antibody (Fab fragment, peroxidase conjugated anti-mouse IgG obtaining from Amersham) diluted 1:4,000 in wash buffer for one hour at 37° C., then rinsed two times with wash buffer. Cells were incubated with substrate solution (4 mg o-phenylene diamine and 3.3 μl 30% H2 O2 in 10 ml 0.1M citrate buffer pH 5.0) for five minutes, R/T, in darkness (under aluminum foil). The reaction was stopped by the addition of 50 μl N H2 SO4. The absorbance of samples was read at 492 nm in the plate reader. Out of the six replicates, four were treated with both antibodies, two were treated only with the secondary antibody (i.e., to determine background binding of enzyme conjugated Ab). TGase levels were determined by subtracting background from the readings from each treatment and determining mean ±s.d. for the replicates exposed to both Ab.
(§3) The level of TGase-1 detected after treatment of the cells could be influenced by cell number, i.e., the greater the number of cells the greater the level of TGase-1 detected. The level of TGase-1 was normalized to DNA content of the cells in the same well thus eliminating variation due to differences in cell number. […]

[2] = test system: transglutaminase I (TG1) in human keratinocytes; assay: Transglutaminase assay (ELISA based TGase I assay) normalized to DNA in keratinocytes, Examples 2-4; assay type: cell-based; conditions: for inhibition of keratinocyte differentiation compared with retinoic acid: summary of the studies
Method: as §1, §2
For Examples 2-4, the following procedure was used:
Keratinocytes (cultured as described above) were plated in 96 well plates at a density of 3,000 cells per well in 200 μl of cell culture media. After incubation for four days, the media was changed to media containing test compounds (six replicates per test). The cells were cultured for a further 72 hours after which time the media was aspirated and the plates stored at -70° C. After the plates were removed from the freezer, the cells were further freezed fractured by freezing and thawing and then washed 3x with PBS. The cells were incubated for one hour at room temperature (R/T) with TBS/5% BSA buffer. Cells were then incubated with 100 μl of monoclonal anti-human transglutaminase (IgG) mouse antibody (primary antibody) obtained from Biomedical Technologies Inc. diluted 1:2000 in TBS/1% BSA buffer for two hours at 37° C., and then rinsed six times with wash buffer (TBS/1% BSA/0.05% Tween-20). Cells were next incubated with 100 μl of Fab fragment, peroxidase conjugated anti-mouse IgG antibody (secondary antibody) from Amersham diluted 1:4,000 in wash buffer for two hours at 37° C. and then rinsed three times with wash buffer and three times with PBS. Cells were incubated with substrate solution (4mg o-phenylene diamine and 3.3 μl 30% H2 O2 in 10mL 0.1M citrate buffer, pH 5.0) for five minutes at R/T and in darkness (under aluminum foil). The reaction was stopped by the addition of 50 μl N H2 SO4. The absorbance of samples was read at 492 nm in the plate reader. Out of the six replicates, four were treated with both antibodies, two were treated only with the secondary antibody (i.e., to determine the background binding of the enzyme conjugated antibody). Transglutaminase I levels were determined by subtracted background from the readings from each treatment and determining the mean s.d. for the replicates exposed to both antibodies.
as §3

[3] = 2.5 × 10^-7 M, 72 hour treatment, Table 4 (Example 4), n = 3
[4] = Example 2: 2.5×10^-7 M retinoic acid, 2.5×10^-9 M retinol, 10^-7 M naringenin alone
[5] = Example 4: 2.5×10^-7 M retinoic acid, 2.5×10^-7 M retinol, 10^-6 M quercetin alone
[6] = Homo sapiens, Keratinocyte, 72 h, 2.5 × 10^-7 M, 72 hour treatment, Table 4 (Example 4), n = 3, read-out: mean TGase/DNA (% control)
[7] = Example 3: 2.5×10^-7 M retinoic acid, 2.5×10^-8 M retinyl palmitate, 10^-8 M naringenin alone

SMILES | decrease in transglutaminase level, dose dependence [1] | activity at 0.25 µM ([1]; 2.5 × 10^-7 M) [%] | activity at 0.025 µM ([1]; 2.5 × 10^-8 M) [%] | activity at 0.0025 µM ([1]; 2.5 × 10^-9 M) [%] | mean TGase/DNA × 10^-5 ± s.d [2, 3] | repression of keratinocyte TG1 level (in words) [2, 4] | repression of keratinocyte TG1 level (in words) [2, 5] | activity at 0.25 µM [2, 6] [%] | inhibition of keratinocyte differentiation compared with retinoic acid [2] | repression of keratinocyte TG1 level (in words) [2, 7] | other results
CC1=C(/C=C/C(C)=C/C=C/C(C)=C/CO)C(C)(C)CCC1 [Retinol, retinol] | dose dependent | 47 | 77 | > 100 | 61.93 ± 5.18 × 10^-5 | ineffective | ineffective | 90 | significantly less effective than retinoic acid |  | mean TGase/DNA × 10^-5 ± s.d ([2]; 2.5 × 10^-9 M retinol, 72 hour treatment, Table 2 (Example 2), n = 3): 48.31 ± 5.31 × 10^-5; mean TGase/DNA (% control) ([2]; 2.5 × 10^-9 M retinol, 72 hour treatment, Table 2 (Example 2), n = 3, 0.0025 µM, 4320 min): 91%; activity at 0.0025 µM ([2]; Homo sapiens, Keratinocyte, 72 h, 2.5 × 10^-9 M retinol, 72 hour treatment, Table 2 (Example 2), n = 3, read-out: mean TGase/DNA (% control)): 92%
O=C1C[C@@H](c2ccc(O)cc2)Oc2cc(O)cc(O)c21 [Naringenin, naringenin] |  |  |  |  |  | no inhibitory effect |  |  |  | small inhibitory effect | mean TGase/DNA × 10^-5 ± s.d ([2]; 10^-7 M naringenin, 72 hour treatment, Table 2 (Example 2), n = 3): 49.84 ± 2.76 × 10^-5; mean TGase/DNA × 10^-5 ± s.d ([2]; 10^-8 M naringenin, 72 hour treatment, Table 3 (Example 3), n = 3): 45.01 ± 1.90 × 10^-5; activity at 0.1 µM ([2]; Homo sapiens, Keratinocyte, 72 h, 10^-7 M naringenin, 72 hour treatment, Table 2 (Example 2), n = 3, read-out: mean TGase/DNA (% control)): 94%; activity at 0.01 µM ([2]; Homo sapiens, Keratinocyte, 72 h, 10^-8 M naringenin, 72 hour treatment, Table 3 (Example 3), n = 3, read-out: mean TGase/DNA (% control)): 89%
CCCCCCCCCCCCCCCC(=O)OC/C=C(C)/C=C/C=C(C)/C=C/C1=C(C)CCCC1(C)C [Retinyl palmitate, retinyl palmitate] |  |  |  |  |  |  |  |  | significantly less effective than retinoic acid | ineffective | mean TGase/DNA × 10^-5 ± s.d ([2]; 2.5 × 10^-8 M retinyl palmitate, 72 hour treatment, Table 3 (Example 3), n = 3): 47.32 ± 4.22 × 10^-5; activity at 0.025 µM ([2]; Homo sapiens, Keratinocyte, 72 h, 2.5 × 10^-8 M retinyl palmitate, 72 hour treatment, Table 3 (Example 3), n = 3, read-out: mean TGase/DNA (% control)): 93%
O=c1c(O)c(-c2ccc(O)c(O)c2)oc2cc(O)cc(O)c12 [Quercetin, quercetin] |  |  |  |  |  |  | only a small inhibitory effect |  |  |  | mean TGase/DNA × 10^-5 ± s.d ([2]; 10^-6 M quercetin, 72 hour treatment, Table 4 (Example 4), n = 3): 59.04 ± 3.38 × 10^-5; activity at 1 µM ([2]; Homo sapiens, Keratinocyte, 72 h, 10^-6 M quercetin, 72 hour treatment, Table 4 (Example 4), n = 3, read-out: mean TGase/DNA (% control)): 85%
CC1=C(/C=C/C(C)=C/C=C/C(C)=C/C(=O)O)C(C)(C)CCC1 [Retinoic acid, retinoic acid] | in a dose dependant manner decreased transglutaminase I levels | 7 | 55 | 77 | 35.91 ± 3.01 × 10^-5 | very effective | effective | 52 |  | very effective | mean TGase/DNA × 10^-4 ± s.d ([1]; 2.5 × 10^-7 M): 0.16 ± 0.11 × 10^-4; mean TGase/DNA × 10^-4 ± s.d ([1]; 2.5 × 10^-8 M): 1.34 ± 0.40 × 10^-4; mean TGase/DNA × 10^-4 ± s.d ([1]; 2.5 × 10^-9 M): 1.87 ± 0.49 × 10^-4; decrease in transglutaminase level, dose dependence ([1]; listed as retinoic acid): dose dependent; effect on keratinocyte differentiation ([1]; all concentrations tested, versus ethanol control, Example 1): decreased keratinocyte differentiation; extent of decrease versus corresponding retinol treatments ([1]; all concentrations tested, Example 1): significantly greater extent; mean TGase/DNA × 10^-5 ± s.d ([2]; 2.5 × 10^-7 M RA, 72 hour treatment, Table 2 (Example 2), n = 3): 22.47 ± 2.31 × 10^-5; mean TGase/DNA × 10^-5 ± s.d ([2]; 2.5 × 10^-7 M RA, 72 hour treatment, Table 3 (Example 3), n = 3): 16.31 ± 2.58 × 10^-5; activity at 0.25 µM ([2]; Homo sapiens, Keratinocyte, 72 h, 2.5 × 10^-7 M RA, 72 hour treatment, Table 2 (Example 2), n = 3, read-out: mean TGase/DNA (% control)): 42%; activity at 0.25 µM ([2]; Homo sapiens, Keratinocyte, 72 h, 2.5 × 10^-7 M RA, 72 hour treatment, Table 3 (Example 3), n = 3, read-out: mean TGase/DNA (% control)): 32%
